These are literature values, as cited in article PMC11084461, “The First Reciprocal Activities of Chiral Peptide Pharmaceuticals: Thymogen and Thymodepressin, as Examples” (International Journal of Molecular Sciences, 2024).

One data set deals with autoantibodies. Further details: method as in ref 97 = [97]; 97. Krasilshchikova M. Leonov V. Zatsepina O. Deigin V. Immunosuppressor studies of Thymodepressin in the experimental autoimmune model Immunology 2009 5 290 294. The following applies: SJL/J mouse.
Data set [1] has as its system hematopoietic progenitor cells. Also noted: method as in ref 74 = [74]; 74. Semina O.V. Semenets T.N. Deigin V.I. Korotkov A.M. Vinogradova Y.E. Poverenny A.M. Stimulation with Thymogen (EW), a dipeptide that has immunoprotective properties to restore hematopoiesis in irr. The conditions noted are these: mice; for Protective effect on hematopoietic progenitor cells after Cytosar treatment: administered two days before Cytosar injection.

Another data set deals with bone marrow cells. Further details: method as in PMID 16307056. The conditions noted are these: mice irradiated 4 Gy, treated seven days after irradiation, read on day eight.
In the next data set the test system is thymocyte regeneration. Further details: method as in PMID 6971758. The following applies: same conditions for all isomers.
For a further data set, the system named is bone marrow. Further details: method as in ref 92 = [92]; 92. Dyadkin V.Y. Shamov B.A. The experimental application of Thymodepressin in patients with psoriasis Dermatology 2003 1 36. The conditions noted are these: pre-treatment two days before irradiation; seven days after irradiation, persisted 14 observation days.
Data set [2] relates to hematopoietic stem cell progenitors. Also noted: method as in ref 82 = [82]; 82. Vladimirskaya E.B. Osipova Y.E. Kaznacheev K.S. Ivanova K.A. Deigin V.I. Rumyantsev A.G. The effect of Thymodepressin on the proliferation of human hematopoietic progenitor cells Hematol. Transfus. The conditions noted are these: in vitro in methylcellulose, MTT test; dose range from 1 µg/mL to 10 µg/mL. A general note: Formazan colour is commonly taken as a measure of viable cells.

The subject of a further data set is CFU-C-8 cells. Further details: method as in PMID 19145362.
Another data set relates to psoriasis vulgaris. Further details: method as in PMID 15199399.
A further data set deals with mature T-lymphocyte. Further details: method as in PMID 12360601. The conditions noted are these: indicated by changed CD25+ and CD69+ markers.
Data set [3] deals with colony-forming unit (CFU). Also noted: method as in PMID 30927190. The conditions noted are these: lethally irradiated mice, i/p on days 1, 2 and 3 after allogeneic bone marrow transplantation.
Another data set concerns leukocytes. Also noted: method as in ref 75 = [75]; 75. Vinogradova Y.E. Deigin V.I. Korotkov A.M. Semina O.V. Sements T.N. Poverenny A.M. Use of Thymogen for the treatment of patients with diseases of the blood system. The influence of Thymogen on the. The following applies: patients after polychemotherapy receiving Thymogen.
The mark [4] stands for this setting: experimental group (29 patients).

Where two headings read alike, the source gives them in different places.

Take Cyclosporine [reference compound]: the “Effective dose, prophylactic regimen” value in the data set with autoantibodies is 20 to 50 mg/kg. The “Dose at which statistically significant effect was achieved” value in the data set on autoantibodies (prophylactic regimen) was 50 mg/kg. In addition, the “Protective effect on hematopoietic progenitor cells after Cytosar treatment” value in data set [1] was “had no effect”.
Consider D-Glu(D-Trp) [Thymodepressin], for which, in the data set on bone marrow cells, the “Rate of dividing bone marrow cells” value was “below that of the intact control”. The “Dose of most effective immunosuppression, therapeutic regimen” value with autoantibodies is 0.7 mg/kg. In the data set with autoantibodies (doses 0.14, 0.35 and 0.7 mg/kg), the “Immunosuppressive effect, prophylactic regimen” value is on record as “pronounced immunosuppressive effect” and the “Immunosuppressive effect, therapeutic regimen” value was “distinct immunosuppressive effect”. In addition, in the data set with autoantibodies (prophylactic regimen), the “Persistence of effect after the end of the drug administration” value is “over ten weeks”. For the same substance, the “Influence on thymocyte regeneration (restoring E-rosette-forming units)” value (“Influence on thymocyte regeneration” below) in the data set with thymocyte regeneration was “effective inhibitors of thymocyte regeneration”. In the data set with bone marrow, the “Bone marrow cell number (cellularity)” value is “restored to an intact level”. Moreover, in data set [2], the “Cloning efficiency of hematopoietic stem cell progenitors” value is recorded as “suppresses the cloning efficiency of all hematopoietic stem cell progenitors”. Moreover, in the data set on CFU-C-8 cells (experimental animal, after administration of the peptide), the “Number of leucocytes in the blood” value was “dose-dependent transient decrease”. In addition, in the data set on CFU-C-8 cells (in vitro and in vivo), the “Number of committed CFU-C-8 cells in the S-phase of the cell cycle” value is on record as “reducing the number of committed CFU-C-8 cells in the S-phase”. Moreover, in the data set on psoriasis vulgaris (setting [4]), the Clinical improvement is 13 patients and the Significant clinical improvement is recorded as 16 patients. For the same substance, the “PASI (Psoriasis Area and Severity Index)” value in the data set on psoriasis vulgaris (experimental group (29 patients), 1st day of treatment, i/m 1 mL 0.1% solution) is 26.8. Also, the “PASI (Psoriasis Area and Severity Index)” value in the data set with psoriasis vulgaris (experimental group, 21st day, three i/m courses of 1 mL 0.1% solution daily for five days) is recorded as 8.6. Further, the “Decrease in the PASI index” value with psoriasis vulgaris (experimental group, day 1 to day 21) is on record as 70%. For the same substance, the “Protective effect on hematopoietic progenitor cells after Cytosar treatment” value in data set [1] is given as “completely protected”. Also, in [1] (two days before Cytosar, after 3 h and up to seven days), the “Number of CFU-S-8 colonies” value is listed as “restored the number of CFU-S-8 colonies to an intact level”. Also, the “Mature T-lymphocyte activation” value in the data set on mature T-lymphocyte was “suppression of mature T-lymphocyte activation”. For the same substance, in data set [3], the “Yield of colonies compared to the control animals” value is listed as “approximately four times”.
With D-Glu-D-Trp, the “Influence on thymocyte regeneration” value in the data set on thymocyte regeneration is “effective inhibitors of thymocyte regeneration”.
Regarding L-Glu-L-Trp [Thymogen], the “Influence on thymocyte regeneration” value in the data set with thymocyte regeneration is given as “stimulating activity”. Further, the “Average leukocyte count compared to the group receiving protocol treatment” value in the data set with leukocytes is “doubled”.
As to L-Glu–(L-Trp)-OH, the “Influence on thymocyte regeneration” value in the data set with thymocyte regeneration is “stimulating activity”.
